Test results taken from PubChem BioAssay AID1963875 (Molecular Pharmacology Branch, DTP, NCI, 2024).

Test system: KRAS-mutant PDC complex spheroid viability
Experiment: Anticancer human tumor 186277-243-T-J2-PDC patient-derived colon adenocarcinoma cell line growth inhibition [KRAS2]
Details: for viability, T/C: stronger effect = lower value
Outline: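 Combination screen of spheroid viability in tumor-cell co-cultures with endothelial (HUVEC) and mesenchymal stem cell stroma. Each agent was tested in half-log dilutions, topping at clinical Cmax or at 10 microM without a known Cmax.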

[1] = curve of first compound, second compound 0.1 µM
[2] = curve of first compound, second compound 0.316 µM
[3] = curve of first compound, second compound 1 µM
[4] = curve of first compound, second compound 3.16 µM
[5] = curve of first compound, second compound 10 µM
[6] = second compound 0.1 µM, first compound 0.0316 µM
[7] = second compound 0.1 µM, first compound 0.1 µM
[8] = second compound 0.1 µM, first compound 0.316 µM
[9] = second compound 0.1 µM, first compound 1 µM
[10] = second compound 0.1 µM, first compound 3.16 µM
[11] = second compound 0.1 µM, first compound 10 µM
[12] = second compound 0.316 µM, first compound 0.0316 µM
[13] = second compound 0.316 µM, first compound 0.1 µM
[14] = second compound 0.316 µM, first compound 0.316 µM
[15] = second compound 0.316 µM, first compound 1 µM
[16] = second compound 0.316 µM, first compound 3.16 µM
[17] = second compound 0.316 µM, first compound 10 µM
[18] = second compound 1 µM, first compound 0.0316 µM
[19] = second compound 1 µM, first compound 0.1 µM
[20] = second compound 1 µM, first compound 0.316 µM
[21] = second compound 1 µM, first compound 1 µM
[22] = second compound 1 µM, first compound 3.16 µM
[23] = second compound 1 µM, first compound 10 µM
[24] = second compound 3.16 µM, first compound 0.0316 µM
[25] = second compound 3.16 µM, first compound 0.1 µM
[26] = second compound 3.16 µM, first compound 0.316 µM
[27] = second compound 3.16 µM, first compound 1 µM
[28] = second compound 3.16 µM, first compound 3.16 µM
[29] = second compound 3.16 µM, first compound 10 µM
[30] = second compound 10 µM, first compound 0.0316 µM
[31] = second compound 10 µM, first compound 0.1 µM
[32] = second compound 10 µM, first compound 0.316 µM
[33] = second compound 10 µM, first compound 1 µM
[34] = second compound 10 µM, first compound 3.16 µM
[35] = second compound 10 µM, first compound 10 µM
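For viability, T/C in this document: viability read after seven days of compound exposure; 100% = DMSO vehicle-treated spheroids so lower means less viable.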

`O=C(c1cc(Cc2n[nH]c(=O)c3ccccc23)ccc1F)N1CCN(C(=O)C2CC2)CC1` + C=CC(=O)N1CCN(c2nc(=O)n(-c3c(C)ccnc3C(C)C)c3nc(-c4c(O)cccc4F)c(F)cc23)C(C)C1 gave an IC50 [1] of 2020 nM, an IC50 [2] of 4920 nM and an IC50 [3] of 6630 nM. It also gave an IC50 [4] of 5740 nM, an IC50 [5] of 1400 nM and a viability, T/C [6] of 108%. The viability, T/C [7] was 111%, the viability, T/C [8] was 98.6% and the viability, T/C [9] was 78%. For the same compound, the viability, T/C [10] was 31.4%, the viability, T/C [11] was 22.7% and the viability, T/C [12] was 105%. It also gave a viability, T/C [13] of 101%, a viability, T/C [14] of 107% and a viability, T/C [15] of 96.6%. For the same compound, the viability, T/C [16] was 60.6%, the viability, T/C [17] was 33.1% and the viability, T/C [18] was 96.5%. For the same compound, the viability, T/C [19] was 96.8%, the viability, T/C [20] was 103% and the viability, T/C [21] was 107%. The viability, T/C [22] was 74.6%, the viability, T/C [23] was 36.4% and the viability, T/C [24] was 95.7%. For the same compound, the viability, T/C [25] was 106%, the viability, T/C [26] was 101% and the viability, T/C [27] was 89.1%. The viability, T/C [28] was 67%, the viability, T/C [29] was 34.6% and the viability, T/C [30] was 78%. The viability, T/C [31] was 82.6%, the viability, T/C [32] was 68.8% and the viability, T/C [33] was 51.4%. For the same compound, the viability, T/C [34] was 40.2% and the viability, T/C [35] was 17.9%.

`COc1cc2nc(C)nc(NC(C)c3cc(N)cc(C(F)(F)F)c3)c2cc1OC1CCOC1` (stereo not drawn) was tested, and the viability, T/C (compound 1 µM) was 101% [middle of 17 runs], the IC50 (compound alone, run of 07/12/2021) was over 10000 nM and the IC50 (compound alone, run of 07/19/2021) was over 10000 nM.

With `Cn1nccc1Nc1nccc(-c2cc3c(s2)C(C)(C)N(CCN2CCOCC2)C3=O)n1` + CNCc1ccccc1-c1csc(C(C)Nc2nc(C)nc3cc(OC)c(OC)cc23)c1 the IC50 [1] was 293 nM, the IC50 [2] was 304 nM and the IC50 [3] was 205 nM. It also gave an IC50 [4] of 91.7 nM, an IC50 [5] of under 31.6 nM and a viability, T/C [6] of 99.2%. The viability, T/C [7] was 98.3%, the viability, T/C [8] was 46.1% and the viability, T/C [9] was 13.5%. It also gave a viability, T/C [10] of 7.74%, a viability, T/C [11] of 6.21% and a viability, T/C [12] of 94.4%. The viability, T/C [13] was 97.3%, the viability, T/C [14] was 48.2% and the viability, T/C [15] was 9.73%. The viability, T/C [16] was 4.43%, the viability, T/C [17] was 7.35% and the viability, T/C [18] was 92%. It also gave a viability, T/C [19] of 105%, a viability, T/C [20] of 20.6% and a viability, T/C [21] of 4.12%. For the same compound, the viability, T/C [22] was 1.64%, the viability, T/C [23] was 2.61% and the viability, T/C [24] was 81.7%. For the same compound, the viability, T/C [25] was 47.4%, the viability, T/C [26] was 1.6% and the viability, T/C [27] was 1.86%. For the same compound, the viability, T/C [28] was 0.22%, the viability, T/C [29] was 0.1% and the viability, T/C [30] was 0.17%. The viability, T/C [31] was 0.15%, the viability, T/C [32] was 0.1% and the viability, T/C [33] was 0.09%. It also gave a viability, T/C [34] of 0.09% and a viability, T/C [35] of 0.16%.

`CN(C)C/C=C/C(=O)Nc1cc2c(Nc3ccc(F)c(Cl)c3)ncnc2cc1O[C@H]1CCOC1` + CC1OCC2(CCN(c3cnc(Sc4ccnc(N)c4Cl)c(N)n3)CC2)C1N gave an IC50 [1] of over 100 nM, an IC50 [2] of over 100 nM and an IC50 [3] of over 100 nM. It also gave an IC50 [4] of 28.9 nM, an IC50 [5] of 27.8 nM and a viability, T/C (second compound 0.1 µM, first compound 0.000316 µM) of 92.7%. The viability, T/C (second compound 0.1 µM, first compound 0.001 µM) was 104%, the viability, T/C (second compound 0.1 µM, first compound 0.00316 µM) was 104% and the viability, T/C (second compound 0.1 µM, first compound 0.01 µM) was 126%. It also gave a viability, T/C [6] of 100%, a viability, T/C [7] of 108% and a viability, T/C (second compound 0.316 µM, first compound 0.000316 µM) of 103%. For the same compound, the viability, T/C (second compound 0.316 µM, first compound 0.001 µM) was 101%, the viability, T/C (second compound 0.316 µM, first compound 0.00316 µM) was 112% and the viability, T/C (second compound 0.316 µM, first compound 0.01 µM) was 104%. It also gave a viability, T/C [12] of 84.5%, a viability, T/C [13] of 81.4% and a viability, T/C (second compound 1 µM, first compound 0.000316 µM) of 92.5%. It also gave a viability, T/C (second compound 1 µM, first compound 0.001 µM) of 90.5%, a viability, T/C (second compound 1 µM, first compound 0.00316 µM) of 93.5% and a viability, T/C (second compound 1 µM, first compound 0.01 µM) of 99.8%. It also gave a viability, T/C [18] of 99.8%, a viability, T/C [19] of 99.5% and a viability, T/C (second compound 3.16 µM, first compound 0.000316 µM) of 97.8%. It also gave a viability, T/C (second compound 3.16 µM, first compound 0.001 µM) of 81.3%, a viability, T/C (second compound 3.16 µM, first compound 0.00316 µM) of 87.7% and a viability, T/C (second compound 3.16 µM, first compound 0.01 µM) of 62.6%. The viability, T/C [24] was 49.4%, the viability, T/C [25] was 34.6% and the viability, T/C (second compound 10 µM, first compound 0.000316 µM) was 92.9%. For the same compound, the viability, T/C (second compound 10 µM, first compound 0.001 µM) was 92%, the viability, T/C (second compound 10 µM, first compound 0.00316 µM) was 79.6% and the viability, T/C (second compound 10 µM, first compound 0.01 µM) was 103%. For the same compound, the viability, T/C [30] was 44.6% and the viability, T/C [31] was 38.4%.
